Measured values taken from ChEMBL document CHEMBL1124151, “21-[18F]fluoro-16 alpha-ethyl-19-norprogesterone: synthesis and target tissue selective uptake of a progestin receptor based radiotracer for positron emission tomography” (J Med Chem, 1988).

Tests used:
Rattus norvegicus [1] = assay: Distribution in fat of iestrogen-primed immature rats after 1 hour iv administration; conditions: in vivo
Rattus norvegicus [2] = assay: Distribution in uterus of in estrogen-primed immature rats after 3 hour iv administration; conditions: in vivo
Rattus norvegicus [3] = assay: Distribution in fat of iestrogen-primed immature rats after 1 hour iv administration (13 microCi); conditions: in vivo
Rattus norvegicus [4] = assay: Distribution in liver of estrogen-primed immature rats after 1 hour iv administration (13 microCi); conditions: in vivo
Rattus norvegicus [5] = assay: Distribution in lungs of estrogen-primed immature rats after 1 hour iv administration (13 microCi); conditions: in vivo
Rattus norvegicus [6] = assay: Distribution in brain of estrogen-primed immature rats after 1 hour iv administration (13 microCi); conditions: in vivo
Rattus norvegicus [7] = assay: Distribution in fat of estrogen-primed immature rats after 3 hour iv administration (120 micro Ci); conditions: in vivo
Rattus norvegicus [8] = assay: Distribution in blood of estrogen-primed immature rats after 1 hour iv administration (13 microCi); conditions: in vivo
Rattus norvegicus [9] = assay: Distribution in bone of iestrogen-primed immature rats after 1 hour iv administration (13 microCi); conditions: in vivo
Rattus norvegicus [10] = assay: Distribution in liver of estrogen-primed immature rats after 1 hour iv administration (120 microCi); conditions: in vivo
Rattus norvegicus [11] = assay: Distribution in lungs of estrogen-primed immature rats after 1 hour iv administration (120 microCi); conditions: in vivo
Rattus norvegicus [12] = assay: Distribution in brain of estrogen-primed immature rats after 1 hour iv administration (120 microCi); conditions: in vivo
Rattus norvegicus [13] = assay: Distribution in kidney of estrogen-primed immature rats after 1 hour iv administration (13 microCi); conditions: in vivo
Rattus norvegicus [14] = assay: Distribution in blood of estrogen-primed immature rats after 1 hour iv administration (120 microCi); conditions: in vivo
Rattus norvegicus [15] = assay: Distribution in bone of estrogen-primed immature rats after 3 hour iv administration (120 micro Ci); conditions: in vivo
Rattus norvegicus [16] = assay: Distribution in bone of iestrogen-primed immature rats after 1 hour iv administration (120 microCi); conditions: in vivo
Rattus norvegicus [17] = assay: Distribution in liver of estrogen-primed immature rats after 3 hour iv administration (120 micro Ci); conditions: in vivo
Rattus norvegicus [18] = assay: Distribution in lungs of estrogen-primed immature rats after 3 hour iv administration (120 micro Ci); conditions: in vivo
Rattus norvegicus [19] = assay: Distribution in muscle of iestrogen-primed immature rats after 1 hour iv administration (13 microCi); conditions: in vivo
Rattus norvegicus [20] = assay: Distribution in brain of estrogen-primed immature rats after 3 hour iv administration (120 micro Ci); conditions: in vivo
Rattus norvegicus [21] = assay: Distribution in kidney of estrogen-primed immature rats after 1 hour iv administration (120 microCi); conditions: in vivo
Rattus norvegicus [22] = assay: Distribution in ovaries of estrogen-primed immature rats after 1 hour iv administration (13 microCi); conditions: in vivo
Rattus norvegicus [23] = assay: Distribution in uterus of estrogen-primed immature rats after 1 hour iv administration (120 microCi); conditions: in vivo
Rattus norvegicus [24] = assay: Distribution in blood of estrogen-primed immature rats after 3 hour iv administration (120 micro Ci); conditions: in vivo
Rattus norvegicus [25] = assay: Distribution in kidney of estrogen-primed immature rats after 3 hour iv administration (120 micro Ci); conditions: in vivo
Rattus norvegicus [26] = assay: Distribution in muscle of iestrogen-primed immature rats after 1 hour iv administration (120 microCi); conditions: in vivo
Rattus norvegicus [27] = assay: Distribution in ovaries of estrogen-primed immature rats after 1 hour iv administration (120 microCi); conditions: in vivo
Rattus norvegicus [28] = assay: Distribution in muscle of iestrogen-primed immature rats after 3 hour iv administration (120 micro Ci); conditions: in vivo
Rattus norvegicus [29] = assay: Distribution in ovaries of estrogen-primed immature rats after 3 hour iv administration (120 micro Ci); conditions: in vivo
Rattus norvegicus [30] = assay: Distribution in uterus of in estrogen-primed immature rats after 1 hour iv administration (13 microCi); conditions: in vivo
Rattus norvegicus [31] = assay: Distribution in uterus/blood of estrogen-primed immature rats after 3 hour iv administration (120 micro Ci); conditions: in vivo
Rattus norvegicus [32] = assay: Distribution in uterus/blood of in estrogen-primed immature rats after 1 hour iv administration (13 microCi); conditions: other tissue
Rattus norvegicus [33] = assay: Distribution in uterus/muscle of estrogen-primed immature rats after 3 hour iv administration (120 micro Ci); conditions: in vivo
Rattus norvegicus [34] = assay: Distribution in fat of iestrogen-primed immature blocked rats after 1 hour iv administration (~/= 17 microg); conditions: in vivo
Rattus norvegicus [35] = assay: Distribution in liver of estrogen-primed immature blocked rats after 1 hour iv administration (~/= 17 microg); conditions: in vivo
Rattus norvegicus [36] = assay: Distribution in lungs of estrogen-primed immature blocked rats after 1 hour iv administration (~/= 17 microg); conditions: in vivo
Rattus norvegicus [37] = assay: Distribution in uterus/muscle of in estrogen-primed immature rats after 1 hour iv administration (13 microCi); conditions: in vivo
Rattus norvegicus [38] = assay: Distribution in blood of estrogen-primed immature blocked rats after 1 hour iv administration (~/= 17 microg); conditions: in vivo
Rattus norvegicus [39] = assay: Distribution in uterus/blood of in estrogen-primed immature rats after 1 hour iv administration (120 microCi); conditions: other tissue
Rattus norvegicus [40] = assay: Distribution in bone of iestrogen-primed immature blocked rats after 1 hour iv administration (~/= 17 microg); conditions: in vivo
Rattus norvegicus [41] = assay: Distribution in brain of estrogen-primed immature blocked rats after 1 hour iv administration (~/= 17 microg); conditions: in vivo
Rattus norvegicus [42] = assay: Distribution in kidney of estrogen-primed immature blocked rats after 1 hour iv administration (~/= 17 microg); conditions: in vivo
Rattus norvegicus [43] = assay: Distribution in uterus of estrogen-primed immature blocked rats after 1 hour iv administration (~/= 17 microg); conditions: in vivo
Rattus norvegicus [44] = assay: Distribution in uterus/muscle of in estrogen-primed immature rats after 1 hour iv administration (120 microCi); conditions: in vivo
Rattus norvegicus [45] = assay: Distribution in muscle of iestrogen-primed immature blocked rats after 1 hour iv administration (~/= 17 microg); conditions: in vivo
Rattus norvegicus [46] = assay: Distribution in ovaries of estrogen-primed immature blocked rats after 1 hour iv administration (~/= 17 microg); conditions: in vivo
Rattus norvegicus [47] = assay: Distribution in uterus/blood of estrogen-primed immature blocked rats after 1 hour iv administration (~/= 17 microg); conditions: other tissue
Rattus norvegicus [48] = assay: Distribution in uterus/muscle of estrogen-primed immature blocked rats after 1 hour iv administration (~/= 17 microg); conditions: in vivo

## CC[C@@H]1C[C@H]2[C@@H]3CCC4=CC(=O)CC[C@@H]4[C@H]3CC[C@]2(C)[C@H]1C(=O)C[18F]
Rattus norvegicus [1]
  Distribution: 3.56%
Rattus norvegicus [2]
  Distribution: 4.63%
Rattus norvegicus [3]
  Distribution: 4.13%
Rattus norvegicus [4]
  Distribution: 2.59%
Rattus norvegicus [5]
  Distribution: 0.57%
Rattus norvegicus [6]
  Distribution: 0.48%
Rattus norvegicus [7]
  Distribution: 2.78%
Rattus norvegicus [8]
  Distribution: 0.19%
Rattus norvegicus [9]
  Distribution: 3.06%
Rattus norvegicus [10]
  Distribution: 3.34%
Rattus norvegicus [11]
  Distribution: 0.47%
Rattus norvegicus [12]
  Distribution: 0.63%
Rattus norvegicus [13]
  Distribution: 0.86%
Rattus norvegicus [14]
  Distribution: 0.25%
Rattus norvegicus [15]
  Distribution: 5.55%
Rattus norvegicus [16]
  Distribution: 3.18%
Rattus norvegicus [17]
  Distribution: 1.01%
Rattus norvegicus [18]
  Distribution: 0.12%
Rattus norvegicus [19]
  Distribution: 0.39%
Rattus norvegicus [20]
  Distribution: 0.14%
Rattus norvegicus [21]
  Distribution: 1.05%
Rattus norvegicus [22]
  Distribution: 2.37%
Rattus norvegicus [23]
  Distribution: 6.43%
Rattus norvegicus [24]
  Distribution: 0.07%
Rattus norvegicus [25]
  Distribution: 0.33%
Rattus norvegicus [26]
  Distribution: 0.42%
Rattus norvegicus [27]
  Distribution: 2.86%
Rattus norvegicus [28]
  Distribution: 0.12%
Rattus norvegicus [29]
  Distribution: 1.72%
Rattus norvegicus [30]
  Distribution: 4.03%
Rattus norvegicus [31]
  uterus/blood ratio: 71.2
Rattus norvegicus [32]
  Distribution: 21.18%
Rattus norvegicus [33]
  Distribution: 41.16%
Rattus norvegicus [34]
  Distribution: 2.9%
Rattus norvegicus [35]
  Distribution: 2.09%
Rattus norvegicus [36]
  Distribution: 0.3%
Rattus norvegicus [37]
  Distribution: 11.06%
Rattus norvegicus [38]
  Distribution: 0.15%
Rattus norvegicus [39]
  Distribution: 26.26%
Rattus norvegicus [40]
  Distribution: 3.09%
Rattus norvegicus [41]
  Distribution: 0.32%
Rattus norvegicus [42]
  Distribution: 0.58%
Rattus norvegicus [43]
  Distribution: 0.38%
Rattus norvegicus [44]
  Distribution: 15.98%
Rattus norvegicus [45]
  Distribution: 0.25%
Rattus norvegicus [46]
  Distribution: 1%
Rattus norvegicus [47]
  uterus/blood ratio: 2.53
Rattus norvegicus [48]
  Distribution: 1.59%
